The values below are quoted from earlier work in patent US7671073B2, “Cyclohexylalanine derivatives as dipeptidyl peptidase-IV inhibitors for the treatment or prevention of diabetes” (Merck Sharp & Dohme Corp., priority 2004, dated 2010).

One data set concerns the target T1, DP-IV (Homo sapiens, UniProt P27487).
T1 construct: GRF is rapidly degraded in plasma to GRF[3-44]

The conditions of data set [1]: rats; Transplantation, 63: 1495-1500 (1997).
For data set [2] the following is noted: mouse, cyclophosphamide-induced neutropenia; WO 99/56753.

T1 sequence (P27487 whole entry): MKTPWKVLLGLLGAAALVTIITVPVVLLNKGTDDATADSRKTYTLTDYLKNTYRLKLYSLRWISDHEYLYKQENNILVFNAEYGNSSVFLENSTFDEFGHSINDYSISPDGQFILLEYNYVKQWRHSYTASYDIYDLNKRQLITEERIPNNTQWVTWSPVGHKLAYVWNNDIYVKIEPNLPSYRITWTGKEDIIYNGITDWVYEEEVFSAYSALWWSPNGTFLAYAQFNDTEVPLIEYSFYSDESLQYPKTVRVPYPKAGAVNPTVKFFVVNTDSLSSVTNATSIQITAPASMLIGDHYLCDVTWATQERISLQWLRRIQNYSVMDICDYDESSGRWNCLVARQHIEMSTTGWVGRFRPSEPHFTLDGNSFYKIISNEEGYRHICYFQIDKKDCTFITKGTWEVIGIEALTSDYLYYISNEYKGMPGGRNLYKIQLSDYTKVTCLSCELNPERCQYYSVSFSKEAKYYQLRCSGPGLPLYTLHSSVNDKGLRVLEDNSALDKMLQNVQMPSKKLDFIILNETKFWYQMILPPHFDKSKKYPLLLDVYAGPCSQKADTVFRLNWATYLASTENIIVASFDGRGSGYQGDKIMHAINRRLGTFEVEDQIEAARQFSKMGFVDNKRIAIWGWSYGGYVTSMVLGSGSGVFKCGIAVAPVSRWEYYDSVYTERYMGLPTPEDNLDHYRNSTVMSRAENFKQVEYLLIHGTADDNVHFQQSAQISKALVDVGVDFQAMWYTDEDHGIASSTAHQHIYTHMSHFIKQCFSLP

With diprotin A, the “degradation of GRF to GRF[3-44] in plasma” value at DP-IV is given as “prevented”.
For the compound `CC(C)N1CCC(c2ccccc2)(c2ccccc2)CC1` [Prodipine, Pro-Pro-diphenyl-phosphonate], the cardiac allograft survival entry in data set [1] is reported as “double cardiac allograft survival in rats from day 7 to day 14”.
As for `CC(C)[C@H](N)C(=O)N1CCC[C@H]1B(O)O` [Val-Boro-Pro], the hematopoiesis entry in data set [2] is on record as “stimulated hematopoiesis”.
